Assay results published in patent US8163756B2 (priority 2004, dated 2012).
Where a name gives a salt, the structure may show the parent alone. Read-outs that look alike come from different tables or passages of the source.

Columns and labels:
Type in all cases: biochemical
B-Raf(V599E) kinase = B-Raf(V599E) kinase (Homo sapiens, UniProt P15056, V600E); assay: B-Raf(V599E) kinase assay B1 (construct 1, MEK1 substrate, coupled spectrophotometric)
Method: The test compounds were incubated with the reaction mixtureat 30° C. for 2 h. […] The reaction rate was calculated using the […] time frame. […] IC50 values were calculated from a series of percent inhibition values determined at a range of inhibitor concentrations using software routines as implemented in the GraphPad Prism software package.

Abl kinase = biological target: T1, Abl kinase (Homo sapiens, UniProt P00519); assay: Abl kinase assay A2 (as A1, 1.1 nM enzyme, 2 h pre-incubation, 0.5 mM ATP)
T1 sequence (P00519 229-512): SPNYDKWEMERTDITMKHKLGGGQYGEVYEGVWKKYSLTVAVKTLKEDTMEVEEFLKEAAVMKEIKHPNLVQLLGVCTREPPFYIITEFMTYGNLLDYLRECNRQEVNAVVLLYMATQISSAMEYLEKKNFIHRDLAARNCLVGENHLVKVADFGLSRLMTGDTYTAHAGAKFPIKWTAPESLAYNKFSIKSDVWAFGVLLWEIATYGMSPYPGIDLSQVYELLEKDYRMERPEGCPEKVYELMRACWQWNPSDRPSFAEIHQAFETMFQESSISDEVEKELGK
Method: (§1) IC50 values were calculated from a series of percent inhibition values determined at a range of inhibitor concentrations using software routines as implemented in the GraphPad Prism software package.

KDR kinase = KDR kinase (Homo sapiens, UniProt P35968, DEL940-989/E990V); assay: KDR kinase assay K1 (pyruvate kinase/lactate dehydrogenase coupled, spectrophotometric); conditions: Method K1; read-out: KDR Data (IC50)
Method: as §1

[1] = biological target: phosphorylated p-38-alpha kinase (Homo sapiens, UniProt Q16539); assay: P-38 alpha kinase assay P1 (coupled spectrophotometric, 2 h pre-incubation)
[2] = Method A2, read-out: Abl Data (IC50)
[3] = method P1 (2 h pre-incubation), read-out: P-38 Data

Sequence of phosphorylated p-38-alpha kinase (Q16539 1-360 isoform Q16539-2): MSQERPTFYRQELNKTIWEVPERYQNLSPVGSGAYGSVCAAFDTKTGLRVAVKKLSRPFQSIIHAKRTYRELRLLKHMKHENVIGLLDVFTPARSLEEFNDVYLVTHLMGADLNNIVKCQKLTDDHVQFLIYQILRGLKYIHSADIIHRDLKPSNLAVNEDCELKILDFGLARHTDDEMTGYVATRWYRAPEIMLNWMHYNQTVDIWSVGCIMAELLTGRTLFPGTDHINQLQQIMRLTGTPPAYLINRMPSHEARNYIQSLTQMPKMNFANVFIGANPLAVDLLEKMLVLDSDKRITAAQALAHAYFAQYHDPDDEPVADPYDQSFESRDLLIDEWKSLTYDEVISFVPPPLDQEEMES
Sequence of B-Raf(V599E) kinase (P15056 with tags, fused parts or gaps V600E): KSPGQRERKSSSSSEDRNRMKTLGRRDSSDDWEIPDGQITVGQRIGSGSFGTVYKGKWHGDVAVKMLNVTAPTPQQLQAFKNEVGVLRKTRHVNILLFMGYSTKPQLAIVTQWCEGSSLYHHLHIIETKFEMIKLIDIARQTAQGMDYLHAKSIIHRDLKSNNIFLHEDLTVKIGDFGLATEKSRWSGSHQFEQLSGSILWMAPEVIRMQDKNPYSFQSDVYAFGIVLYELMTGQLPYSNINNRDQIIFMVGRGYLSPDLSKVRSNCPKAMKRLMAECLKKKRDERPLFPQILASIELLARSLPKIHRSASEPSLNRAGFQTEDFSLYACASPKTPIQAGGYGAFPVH
Sequence of KDR kinase (P35968 with tags, fused parts or gaps DEL940-989/E990V): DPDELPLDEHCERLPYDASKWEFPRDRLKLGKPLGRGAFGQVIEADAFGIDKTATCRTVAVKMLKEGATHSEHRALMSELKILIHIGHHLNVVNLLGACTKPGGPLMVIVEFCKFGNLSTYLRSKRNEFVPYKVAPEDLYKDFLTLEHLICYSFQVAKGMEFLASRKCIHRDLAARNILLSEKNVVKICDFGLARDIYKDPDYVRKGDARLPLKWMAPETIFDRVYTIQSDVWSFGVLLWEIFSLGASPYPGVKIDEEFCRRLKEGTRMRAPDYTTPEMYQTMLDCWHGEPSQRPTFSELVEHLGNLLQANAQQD

Compound	IC50 (B-Raf(V599E) kinase) [nM]	IC50 (Abl kinase; [2]) [nM]	IC50 (KDR kinase) [nM]	IC50 (Abl kinase) [nM]	IC50 [1, 3] [nM]	IC50 [1] [nM]
CC(C)(C)c1cc(NC(=O)Nc2cccc(Cl)c2Cl)n(-c2ccc3nc(N4CCNCC4)ccc3c2)n1 [Example 168, 1-(3-t-butyl-1-(2-(piperazin-1-yl)quinolin-6-yl)-1H-pyrazol-5-yl)-3-(2,3-dichlorophenyl)urea]	30	1100				
CC(C)(C)c1cc(NC(=O)Nc2cccc(Cl)c2Cl)n(-c2ccc3c(c2)CNCC3)n1 [Example 123, 1-[3-t-butyl-1-(1,2,3,4-tetrahydroisoquinolin-7-yl)-1H-pyrazol-5-yl]-3-(2,3-dichloro-phenyl)urea]	4.9	290	190			
CNC(=O)c1cc(Oc2ccc(NC(=O)Nc3cc(C(C)(C)C)nn3-c3ccc4nc(N5CCNCC5)ccc4c3)cc2)ccn1 [Example 170, 1-(3-t-butyl-1-(2-(piperazin-1-yl)quinolin-6-yl)-1H-pyrazol-5-yl)-3-(4-(2-(methylcarbamoyl)pyridin-4-yloxy)phenyl)urea]	40	1.8				
CNC(=O)c1cc(Oc2ccc(NC(=O)Nc3cc(C(C)(C)C)nn3-c3ccc4nc(NCCN)ccc4c3)cc2)ccn1 [Example 172, 1-(1-(2-(2-aminoethylamino)quinolin-6-yl)-3-t-butyl-1H-pyrazol-5-yl)-3-(4-(2-(methylcarbamoyl)pyridin-4-yloxy)phenyl)urea]	29	1.9				
CC(C)(C)c1cc(NC(=O)Nc2cccc(Oc3cncc(Cl)c3)c2)n(-c2ccc3c(c2)CCNC3)n1 [Example 150, 1-(3-t-butyl-1-(1,2,3,4-tetrahydroisoquinolin-6-yl)-1H-pyrazol-5-yl)-3-(3-(5-chloropyridin-3-yloxy)phenyl)urea]	4.7	1.3				
Cc1ccc(NC(=O)Nc2cc(C(C)(C)C)nn2-c2ccc3c(c2)CCNC3)cc1Nc1nccc(-c2cccnc2)n1 [Example 153, 1-(3-t-butyl-1-(1,2,3,4-tetrahydroisoquinolin-6-yl)-1H-pyrazol-5-yl)-3-(4-methyl-3-(4-(pyridin-3-yl)pyrimidin-2-ylamino)phenyl)urea dihydrochloride]	27			1.2		
Cn1c(=O)c(-c2cccc(NC(=O)Nc3cc(C(C)(C)C)nn3-c3ccc4c(c3)CCNC4)c2)cc2cncnc21 [Example 149, 1-(3-t-butyl-1-(1,2,3,4-tetrahydroisoquinolin-6-yl)-1H-pyrazol-5-yl)-3-(3-(8-methyl-7-oxo-7,8-dihydropyrido[2,3-d]pyrimidin-6-yl)phenyl)urea]	9.3	1.2				
CC(C)(C)c1cc(NC(=O)Nc2cccc(Oc3cccnc3)c2)n(-c2cc(CO)c3ccccc3c2)n1 [Example 67, 1-(3-t-butyl-1-(4-(hydroxymethyl)naphthalen-2-yl)-1H-pyrazol-5-yl)-3-(3-(pyridin-3-yloxy)phenyl)urea]	4.8	1			35	
CNC(=O)c1cc(Oc2ccc(NC(=O)Nc3cc(C(C)(C)C)nn3-c3ccc4nc(N(C)C)ccc4c3)cc2)ccn1 [Example 175, 1-(3-t-butyl-1-(2-(dimethylamino)quinolin-6-yl)-1H-pyrazol-5-yl)-3-(4-(2-(methylcarbamoyl)pyridin-4-yloxy)phenyl)urea]	30	1.5			160	
CC(C)(C)c1cc(NC(=O)Nc2cc(F)c(F)cc2F)n(-c2cc(CC(=O)NCC(O)CO)c3ccccc3c2)n1 (stereo not shown) [Example 94, 1-(3-t-butyl-1-(4-(2-(2,3-dihydroxypropyl-amino)-2-oxoethyl)naphthalen-2-yl)-1H-pyrazol-5-yl)-3-(2,4,5-trifluorophenyl)urea]	4.8	130			68	
CC(C)(C)c1cc(NC(=O)Nc2cccc(C#N)c2)n(-c2cc(CN)c3ccccc3c2)n1 [Example 73, 1-(1-(4-(aminomethyl)naphthalen-2-yl)-3-t-butyl-1H-pyrazol-5-yl)-3-(3-cyanophenyl)urea]	45	190				
Cn1c(=O)c(-c2cccc(NC(=O)Nc3cc(C(C)(C)C)nn3-c3ccc4c(c3)CCC(=O)N4)c2)cc2cncnc21 [Example 132, 1-(3-t-butyl-1-(2-oxo-1,2,3,4-tetrahydroquinolin-6-yl)-1H-pyrazol-5-yl)-3-(3-(8-methyl-7-oxo-7,8-dihydropyrido[2,3-d]pyrimidin-6-yl)phenyl)urea]	4.8	13			59	
CC(C)(C)c1cc(NC(=O)Nc2cc(F)c(F)cc2F)n(-c2cc(CC(N)=O)c3ccccc3c2)n1 [Example 81, 1-(1-(4-(2-amino-2-oxoethyl)naphthalen-2-yl)-3-t-butyl-1H-pyrazol-5-yl)-3-(2,4,5-trifluorophenyl)urea]	4.1	120				
CNC(=O)c1cc(Oc2ccc(NC(=O)Nc3cc(C(C)(C)C)nn3-c3ccc4nc(N5CC[C@@H](N(C)C)C5)ccc4c3)cc2)ccn1 [Example 173, 1-(3-t-butyl-1-(2-((R)-3-(dimethylamino)pyrrolidin-1-yl)quinolin-6-yl)-1H-pyrazol-5-yl)-3-(4-(2-(methylcarbamoyl)pyridin-4-yloxy)phenyl)urea]	63	4.2				
CC(C)(C)c1cc(NC(=O)Nc2cc(F)c(F)cc2F)n(-c2ccc3c(c2)CCNC3)n1 [Example 146, 1-(3-t-butyl-1-(1,2,3,4-tetrahydroiso-quinolin-6-yl)-1H-pyrazol-5-yl)-3-(2,4,5-trifluorophenyl)-urea]	8.8	190				
CC(C)(C)c1cc(NC(=O)Nc2cc(F)cc(F)c2F)n(-c2cc(CC(=O)NCC(O)CO)c3ccccc3c2)n1 (stereo not shown) [Example 95, 1-(3-t-butyl-1-(4-(2-(2,3-dihydroxypropyl-amino)-2-oxoethyl)naphthalen-2-yl)-1H-pyrazol-5-yl)-3-(2,3,5-trifluorophenyl)urea]	2.9	56				
CC(C)(C)c1cc(NC(=O)Nc2cc(F)cc(F)c2F)n(-c2cc(CO)c3ccccc3c2)n1 [Example 65, 1-(3-t-butyl-1-(4-(hydroxymethyl)naphthalen-2-yl)-1H-pyrazol-5-yl)-3-(2,3,5-trifluorophenyl)urea]	3	110				
CNC(=O)c1cc(Oc2ccc(NC(=O)Nc3cc(C(C)(C)C)nn3-c3ccc4c(c3)CCNC4)cc2)ccn1 [Example 148, 1-(3-t-butyl-1-(1,2,3,4-tetrahydroisoquinolin-6-yl)-1H-pyrazol-5-yl)-3-(4-(2-(methylcarbamoyl)pyridin-4-yloxy)phenyl)urea]	31	1.2				
Cn1c(=O)c(-c2cccc(NC(=O)Nc3cc(C(C)(C)C)nn3-c3ccc4c(c3)CC(C(N)=O)NC4)c2)cc2cncnc21 (stereo not shown) [Example 185, 1-(3-t-butyl-1-(3-carbamoyl-1,2,3,4-tetrahydroisoquinolin-6-yl)-1H-pyrazol-5-yl)-3-(3-(8-methyl-7-oxo-7,8-dihydropyrido[2,3-d]pyrimidin-6-yl)phenyl)urea dihydrochloride]	6.9			2.7		23
CC(C)(C)c1cc(NC(=O)Nc2cccc(Oc3cccnc3)c2)n(-c2cc(CC(=O)NCC(O)CO)c3ccccc3c2)n1 (stereo not shown) [Example 97, 1-(3-t-butyl-1-(4-(2-(2,3-dihydroxypropyl-amino)-2-oxoethyl)naphthalen-2-yl)-1H-pyrazol-5-yl)-3-(3-(pyridin-3-yloxy)phenyl)urea]	7.2	1.5				
O=C1CCc2cc(-n3nc(C4CCCC4)cc3NC(=O)Nc3cccc(Oc4cccnc4)c3)ccc2N1 [Example 133, 1-(3-cyclopentyl-1-(2-oxo-1,2,3,4-tetrahydroquinolin-6-yl)-1H-pyrazol-5-yl)-3-(3-(pyridin-3-yloxy)phenyl)urea]		48				
Cn1c(=O)c(-c2cccc(NC(=O)Nc3cc(C4CCCC4)nn3-c3ccc4[nH]c(=O)ccc4c3)c2)cc2cncnc21 [Example 162, 1-(3-cyclopentyl-1-(2-oxo-1,2-dihydroquinolin-6-yl)-1H-pyrazol-5-yl)-3-(3-(8-methyl-7-oxo-7,8-dihydropyrido[2,3-d]pyrimidin-6-yl)phenyl)urea]	6.7	80				
CNC(=O)c1cc(Oc2ccc(NC(=O)Nc3cc(C4CCCC4)nn3-c3ccc4[nH]c(=O)ccc4c3)cc2)ccn1 [Example 163, 1-(3-cyclopentyl-1-(2-oxo-1,2-dihydroquinolin-6-yl)-1H-pyrazol-5-yl)-3-(4-(2-(methylcarbamoyl)pyridin-4-yloxy)phenyl)urea]	18	6.3				
CNC(=O)c1cc(Oc2ccc(NC(=O)Nc3cc(C(C)(C)C)nn3-c3ccc4[nH]c(=O)ccc4c3)cc2)ccn1 [Example 159, 1-(3-t-butyl-1-(2-oxo-1,2-dihydroquinolin-6-yl)-1H-pyrazol-5-yl)-3-(4-(2-(methylcarbamoyl)pyridin-4-yloxy)phenyl)urea]	14	2.3			72	
CC(C)(C)c1cc(NC(=O)Nc2ccc(-c3cccc4c3CNC4=O)cc2)n(-c2ccc3c(c2)CCN3S(C)(=O)=O)n1 [Example 192, 1-(3-t-butyl-1-(1-(methylsulfonyl)indolin-5-yl)-1H-pyrazol-5-yl)-3-(4-(1-oxoisoindolin-4-yl)phenyl)urea]		27				
